Eight compounds from US20060110456A1, “Method for biocidal and/or biostatic treatment and compositions therefor” (NATIONAL UNIVERSITY OF SINGAPORE, priority 2004, published 2006) can be followed below.

The structures appear in SMILES notation. Entries after “also recorded” stand apart in the source; their conditions may differ. Structures can show the parent of a compound that is named as a salt. Where two headings read alike, the source gives them in different places.

Data set [1] relates to marine bacteria (ten strains). The experiment in a line: Bio-adhesion assay (crystal violet microplate). It counts as cell-based, marine bacteria isolated from Singapore fouling communities. Particulars: for Effect on bacterial adhesion: polystyrene or tissue culture surface as named in the value; for Effect of drugs on adhesion of bacteria: 50 μl of 125 μg ml^−1 drug + 200 μl bacteria, 2 hours. As to the method: The effect of pharmaceuticals on bacterial adhesion was analyzed using a modified microplate method adapted from Shea and Williamson (1990). This method consists of staining the attached bacteria with crystal violet, releasing the stain with sodium desoxycholate, and measuring the resulting absorbance of the crystal violet. The absorbance is proportional to the degree of bacterial adhesion to the surface.
Ten strains of bacteria (strain numbers 1, 4, 9, 14, 18, 20, 27, 28, 29 and 30) were chosen for this study. Flat bottom non-tissue culture treated polystyrene (hydrophobic, Falcon #351172) (referred to as polystyrene) and flat bottom tissue culture treated polystyrene (hydrophilic, Falcon #353072) microplates were used in the analyses. These two types of plates were chosen because they were sterile and offered two different kinds of surfaces to determine the adhesion preferences of the bacteria. Each test was done in duplicate. For the control and blank wells, 50 μl of sterile deionized water were added. For those wells that were to contain drugs, 50 μl of drugs at concentration of 125 μg ml^−1 were added. Then 200 μl of bacteria suspension in sterile seawater, whose absorbance had been adjusted to 0.6 at 600 nm using a spectrophotometer (Beckman), were added. Blanks contained 200 μl of sterile seawater.
The bacteria in suspension were allowed to attach for 2 hours at 28° C. Unattached cells were removed by pipetting out almost all trace of liquid and rinsed three times with 300 μl of sterile seawater each time. The attached cells were stained with 200 μl of crystal violet solution (0.1% w/v) in each well for 5 min. After removing the stain by pipetting, the wells were rinsed twice with 300 μl of sterile deionized water each time. Sodium desoxycholate (200 μl) solution (2% w/v) was then added to each well to extract the crystal violet from the stained cells for 10 min. The absorbance of the extracted solution was read at 590 nm using a microplate reader (Sunrise, Tecan, Switzerland).
The data were analyzed using T-test (Two-sample assuming unequal variances) to determine the significance of the absorbance values of each bacterial strain versus the blanks to determine whether there was adhesion, i.e. increase in absorbance. Each drug effect on adhesion was analyzed by comparing the absorbance of each bacterial strain minus the control blank versus bacteria in presence of drug minus the drug control. When the data is significant, there are bacterial cells attached to the surface in the control but in the presence of drugs, there is no attachment.

Data set [2] deals with Balanus amphitrite stage II naupliar larvae. How it is done:
Pharmaceuticals from the respective manufacturers were treated in the following way. A pill containing a known amount of active ingredient (as stated in product information) was ground in a mortar and pestle and a suspension of 2 mg ml^−1 generated in de-ionized water. This stock solution is stored at −20° C. in 4 ml amber screw cap vials. For the bioassays, 250 ul of stock solution is added to 10 ml of 1 um filtered seawater. This suspension was then sonicated for 10 minutes. Serial dilutions of this 50 μg ml^−1 seawater solution, or suspension, with seawater was done to generate the required range of concentrations.
Stage II naupliar larvae used in tests were obtained from Balanus amphitrite adults collected from inter-tidal rock walls at Kranji mangrove, Singapore. Larvae were collected from a container of adults by attraction to a point source of light and transferred to 500 ml of fresh seawater. Next, larvae were re-concentrated with a fiber optic light and added to assays.
Duplicate assays were conducted in 2 ml micro-centrifuge tubes (Axygen MCT-200-C) in 1.5 ml of filtered seawater for 22 to 24 hours. The assays were repeated for confirmation. There were four controls (vehicle only, 0 μg ml^−1), and 2 tubes of each for each test concentration. The assay was initiated by addition of barnacle nauplii in 50 to 100 μl of seawater.
After 22 to 24 hours of incubation at 25-27° C., solutions containing test animals were transferred to a Bogorov tray and scored as living or dead. Moribund larvae were scored as dead. Results were confirmed by repeating the assay. […] If data were not appropriate for probit analysis, the LC50 was estimated from graphed data.

Setting [3] is: strain 1 (Rhodovulum), hydrophobic surface (untreated polystyrene).
The mark [4] stands for this setting: strain 4 (Bacillus), hydrophobic surface (untreated polystyrene).
Where [5] appears, read: strain 9 (Bacillus), hydrophobic surface (untreated polystyrene).
[6] abbreviates: strain 20, hydrophobic surface (untreated polystyrene).
Setting [7] is: strain 27, hydrophobic surface (untreated polystyrene).
Setting [8] is: strain 28, hydrophobic surface (untreated polystyrene).
Setting [9] is: strain 30, hydrophilic surface (tissue culture treated polystyrene).
Setting [10] is: barnacle nauplii, 22 to 24 hours, concentration that caused 50% mortality.
Setting [11] is: strain 4 (Bacillus), hydrophilic surface (tissue culture treated polystyrene).

As for `Cc1cc2c(s1)Nc1ccccc1N=C2N1CCN(C)CC1` [ZPX, olanzapine], the “Effect on bacterial adhesion” value in data set [1] is “prevented biofilm formation for almost all strains in the polystyrene surface”. For the same compound, the “Effect of drugs on adhesion of bacteria” value in data set [1] (setting [3]) was “*** (*** p < 0.005)”; in data set [1] (setting [4]) it was “* (Significantly less adhesion observed: * p < 0.05)”; in data set [1] (setting [5]), “*** (*** p < 0.005)”; in data set [1] (strain 14 (Vibrio), hydrophobic surface (untreated polystyrene)), “** (** p < 0.01)”; in data set [1] (strain 18 (Microbacterium), hydrophobic surface (untreated polystyrene)), “* (Significantly less adhesion observed: * p < 0.05)”; in data set [1] (setting [6]), “*** (*** p < 0.005)”. Moreover, the “Effect of drugs on adhesion of bacteria” value was “*** (*** p < 0.005)” in data set [1] (setting [7]); “*** (*** p < 0.005)” in data set [1] (setting [8]); “* (Significantly less adhesion observed: * p < 0.05)” in data set [1] (strain 29, hydrophobic surface (untreated polystyrene)); “* (Significantly less adhesion observed: * p < 0.05)” in data set [1] (setting [9]). The compound also registered an LD50 in data set [2] (setting [10]) of 505.82 ng/mL.

On to `CN(C)C(=O)C(CCN1CCC(O)(c2ccc(Cl)cc2)CC1)(c1ccccc1)c1ccccc1` [IMD, Loperamide hydrochloride], for which the “Effect on bacterial adhesion” value in data set [1] is recorded as “caused strain 1 to adhere to tissue culture surfaces”. Also, the “Effect of drugs on adhesion of bacteria” value was “*incr adhesion” in data set [1] (strain 1 (Rhodovulum), hydrophilic surface (tissue culture treated polystyrene)); “* (Significantly less adhesion observed: * p < 0.05)” in data set [1] (setting [3]); “* (Significantly less adhesion observed: * p < 0.05)” in data set [1] (strain 14 (Vibrio), hydrophilic surface (tissue culture treated polystyrene)). The compound also returned an LD50 in data set [2] (setting [10]) of 241.34 ng/mL.

For `CN1CCN(C(c2ccccc2)c2ccccc2)CC1` [CYZ, Cyclizine hydrochloride], in data set [1] (hydrochloride), the “Effect on bacterial adhesion” value is reported as “did not modify bacterial adhesion on polystyrene; also recorded: marginally increased adhesion for strain 27 in the tissue culture surface”. Besides, the “Effect of drugs on adhesion of bacteria” value in data set [1] (strain 27, hydrophilic surface (tissue culture treated polystyrene)) is listed as “*Incr adhesion”. This compound also gave an LD50 in data set [2] (setting [10]) of 61.05 ng/mL. In addition, the “Toxicity to barnacle nauplii and cyprids” value in data set [2] (in vivo) is “toxic to barnacle nauplii and cyprids”.

In the case of `CN1CCN(CCCN2c3ccccc3Sc3ccc(Cl)cc32)CC1` [PCZ, prochlorperazine maleate], the “Effect of drugs on adhesion of bacteria” value in data set [1] (setting [3]) was “* (Significantly less adhesion observed: * p < 0.05)”; in data set [1] (setting [11]) it was “* (Significantly less adhesion observed: * p < 0.05)”; in data set [1] (setting [4]), “* (Significantly less adhesion observed: * p < 0.05)”; in data set [1] (setting [5]) it was “* (Significantly less adhesion observed: * p < 0.05)”; in data set [1] (strain 30, hydrophobic surface (untreated polystyrene)), “* (Significantly less adhesion observed: * p < 0.05)”. This compound displayed an LD50 in data set [2] (setting [10]) of 3.54 ng/mL. Further, the “Toxicity to barnacle nauplii and cyprids” value in data set [2] (in vivo) is “very toxic to nauplii and cyprids”.

As for `CN1CCN(CCCN2c3ccccc3Sc3ccc(C(F)(F)F)cc32)CC1` [TFZ, Trifluoperazine hydrochloride], the “Effect of drugs on adhesion of bacteria” value in data set [1] (setting [11]) is “* (Significantly less adhesion observed: * p < 0.05)”; in data set [1] (setting [4]) it was “*** (*** p < 0.005)”; in data set [1] (setting [5]), “** (** p < 0.01)”; in data set [1] (strain 18 (Microbacterium), hydrophilic surface (tissue culture treated polystyrene)) it was “* (Significantly less adhesion observed: * p < 0.05)”; in data set [1] (setting [7]) it was “*** (*** p < 0.005)”. Also, the LD50 in data set [2] (setting [10]) was 9.35 ng/mL. Also, the “Toxicity to barnacle nauplii and cyprids” value in data set [2] (in vivo) was “very toxic to nauplii and cyprids”.

In the case of `CNCCC(Oc1ccc(C(F)(F)F)cc1)c1ccccc1` (stereo not drawn) [PZC, fluoxetine hydrochloride], the “Effect of drugs on adhesion of bacteria” value in data set [1] (setting [3]) and in data set [1] (setting [5]) was “* (Significantly less adhesion observed: * p < 0.05)” each time.

As for `CN[C@H]1CC[C@@H](c2ccc(Cl)c(Cl)c2)c2ccccc21.Cl` [ZLT, sertraline hydrochloride], the “Effect of drugs on adhesion of bacteria” value is reported as “*** (*** p < 0.005)” in data set [1] (setting [3]); “*** (*** p < 0.005)” in data set [1] (setting [4]); “* (Significantly less adhesion observed: * p < 0.05)” in data set [1] (setting [5]); “*** (*** p < 0.005)” in data set [1] (setting [6]); “*** (*** p < 0.005)” in data set [1] (setting [7]); “*** (*** p < 0.005)” in data set [1] (setting [8]). Moreover, in data set [1] (setting [9]), the “Effect of drugs on adhesion of bacteria” value is “*** (*** p < 0.005)”. This compound had an LD50 in data set [2] (setting [10]) of 1.58 ng/mL. Besides, in data set [2] (crude rank, best (1) to worst (8)), the “Toxicity to barnacle nauplii” value was found to be 1.

Take `CCCCCCCCCC(=O)OC1(c2ccc(Cl)cc2)CCN(CCCC(=O)c2ccc(F)cc2)CC1` [HDL, haloperidol decanoate]: the “Effect on bacterial adhesion” value in data set [1] was “significant inhibition of adhesion in strain 1 and 20”. Further, the results for the “Effect of drugs on adhesion of bacteria” value in data set [1] (setting [3]) and in data set [1] (setting [6]) were “*** (*** p < 0.005)” and “* (Significantly less adhesion observed: * p < 0.05)”, respectively. Besides, the LD50 in data set [2] (Balanus amphitrite, in vivo) is 252.68 ng/mL. Further, the “Toxicity to barnacle nauplii and cyprids” value in data set [2] (in vivo) was “toxic to barnacle nauplii and cyprids”.
